# Measured values reported in article PMC5761851, “Application of a phenotypic drug discovery strategy to identify biological and chemical starting points for inhibition of TSLP production in lung epithelial cells” (PLoS ONE, 2018).
# Experiments:
# Assay in all cases: kinase selectivity panel
# Type in all cases: biochemical
# CDK6/cyclinD3 = molecular target: T1, CDK6/cyclinD3 (Homo sapiens, UniProt Q00534); settings: read-out: percentage of control activity (POC), CDK6/cyclinD3
# T1 construct: purchased Eurofins Pharma Discovery Services (KinaseProfiler; Cerep BioPrint panel)
# T1 sequence (Q00534 whole entry): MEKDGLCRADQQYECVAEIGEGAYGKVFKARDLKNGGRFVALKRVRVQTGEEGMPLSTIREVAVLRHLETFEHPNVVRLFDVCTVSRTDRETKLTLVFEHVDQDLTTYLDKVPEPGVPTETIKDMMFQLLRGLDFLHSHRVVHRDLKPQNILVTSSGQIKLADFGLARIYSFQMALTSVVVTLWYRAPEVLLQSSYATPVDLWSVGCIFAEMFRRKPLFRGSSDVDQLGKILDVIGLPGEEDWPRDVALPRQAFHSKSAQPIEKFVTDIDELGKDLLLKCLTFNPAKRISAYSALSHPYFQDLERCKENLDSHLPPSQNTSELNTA
# T1 sequence (P30281 whole entry partner): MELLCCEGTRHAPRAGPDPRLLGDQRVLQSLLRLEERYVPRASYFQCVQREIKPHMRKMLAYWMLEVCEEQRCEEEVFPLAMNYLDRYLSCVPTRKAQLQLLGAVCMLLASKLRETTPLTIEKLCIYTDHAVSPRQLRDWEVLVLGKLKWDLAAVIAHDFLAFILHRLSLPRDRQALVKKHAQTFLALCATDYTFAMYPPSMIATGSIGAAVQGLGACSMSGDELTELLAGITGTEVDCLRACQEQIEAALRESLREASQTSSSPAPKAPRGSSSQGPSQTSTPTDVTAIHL
# Summary of the method: (§1)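 First, 125 representative kinases were exposed to 10 μM compound in duplicate; next, selected activities were titrated over 9 concentrations in duplicate, and IC50 values were calculated.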
# JNK3 = molecular target: T2, JNK3 (Homo sapiens, UniProt P53779); settings: read-out: percentage of control activity (POC), JNK3
# T2 construct: purchased Eurofins Pharma Discovery Services (KinaseProfiler; Cerep BioPrint panel)
# T2 sequence (P53779 whole entry): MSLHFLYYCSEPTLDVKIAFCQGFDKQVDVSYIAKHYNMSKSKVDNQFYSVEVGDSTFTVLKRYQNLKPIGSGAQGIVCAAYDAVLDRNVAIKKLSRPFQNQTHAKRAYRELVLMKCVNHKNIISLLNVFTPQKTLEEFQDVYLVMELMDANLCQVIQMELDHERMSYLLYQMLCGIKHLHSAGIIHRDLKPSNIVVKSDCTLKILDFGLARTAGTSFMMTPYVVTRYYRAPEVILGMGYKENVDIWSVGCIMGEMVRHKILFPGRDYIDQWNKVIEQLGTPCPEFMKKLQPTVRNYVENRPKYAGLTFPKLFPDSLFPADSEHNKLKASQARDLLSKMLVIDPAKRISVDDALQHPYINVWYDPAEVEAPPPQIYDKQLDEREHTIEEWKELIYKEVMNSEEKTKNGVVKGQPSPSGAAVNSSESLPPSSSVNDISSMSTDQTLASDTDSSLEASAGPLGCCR
# Summary of the method: as §1
# Abl = molecular target: T3, Abl (Homo sapiens, UniProt P00519); settings: read-out: percentage of control activity (POC), Abl
# T3 construct: purchased Eurofins Pharma Discovery Services (KinaseProfiler; Cerep BioPrint panel)
# T3 sequence (P00519 whole entry): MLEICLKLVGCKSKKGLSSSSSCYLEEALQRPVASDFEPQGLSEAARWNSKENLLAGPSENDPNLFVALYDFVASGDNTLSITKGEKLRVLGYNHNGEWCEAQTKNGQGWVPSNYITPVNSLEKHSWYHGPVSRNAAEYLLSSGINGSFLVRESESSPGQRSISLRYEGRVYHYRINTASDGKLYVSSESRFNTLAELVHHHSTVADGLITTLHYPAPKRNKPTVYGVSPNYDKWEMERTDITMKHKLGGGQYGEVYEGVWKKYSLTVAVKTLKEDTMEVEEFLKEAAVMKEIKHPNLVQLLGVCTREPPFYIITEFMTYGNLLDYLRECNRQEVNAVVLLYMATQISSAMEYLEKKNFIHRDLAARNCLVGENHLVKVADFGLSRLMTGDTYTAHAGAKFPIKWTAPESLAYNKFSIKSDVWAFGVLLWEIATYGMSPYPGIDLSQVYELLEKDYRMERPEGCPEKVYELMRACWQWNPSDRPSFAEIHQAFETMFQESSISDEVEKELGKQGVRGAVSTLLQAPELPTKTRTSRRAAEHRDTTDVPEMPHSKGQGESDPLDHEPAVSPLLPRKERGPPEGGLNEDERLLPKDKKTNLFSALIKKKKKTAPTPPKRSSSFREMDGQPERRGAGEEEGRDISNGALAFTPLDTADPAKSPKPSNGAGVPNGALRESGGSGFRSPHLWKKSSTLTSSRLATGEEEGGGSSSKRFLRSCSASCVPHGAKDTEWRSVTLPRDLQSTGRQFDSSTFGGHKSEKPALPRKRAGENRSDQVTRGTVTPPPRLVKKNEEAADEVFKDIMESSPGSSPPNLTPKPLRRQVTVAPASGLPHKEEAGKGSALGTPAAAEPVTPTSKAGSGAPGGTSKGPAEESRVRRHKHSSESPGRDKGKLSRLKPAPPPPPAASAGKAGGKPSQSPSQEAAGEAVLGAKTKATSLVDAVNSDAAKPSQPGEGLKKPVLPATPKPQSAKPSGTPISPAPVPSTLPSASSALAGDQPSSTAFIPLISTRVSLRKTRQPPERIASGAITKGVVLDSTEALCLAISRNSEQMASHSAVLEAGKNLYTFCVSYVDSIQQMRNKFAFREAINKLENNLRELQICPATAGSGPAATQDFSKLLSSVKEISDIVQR
# Summary of the method: as §1
# PKCι = molecular target: T4, PKCι (Homo sapiens, UniProt P41743); settings: read-out: percentage of control activity (POC), PKCι
# T4 construct: purchased Eurofins Pharma Discovery Services (KinaseProfiler; Cerep BioPrint panel)
# T4 sequence (P41743 1-596): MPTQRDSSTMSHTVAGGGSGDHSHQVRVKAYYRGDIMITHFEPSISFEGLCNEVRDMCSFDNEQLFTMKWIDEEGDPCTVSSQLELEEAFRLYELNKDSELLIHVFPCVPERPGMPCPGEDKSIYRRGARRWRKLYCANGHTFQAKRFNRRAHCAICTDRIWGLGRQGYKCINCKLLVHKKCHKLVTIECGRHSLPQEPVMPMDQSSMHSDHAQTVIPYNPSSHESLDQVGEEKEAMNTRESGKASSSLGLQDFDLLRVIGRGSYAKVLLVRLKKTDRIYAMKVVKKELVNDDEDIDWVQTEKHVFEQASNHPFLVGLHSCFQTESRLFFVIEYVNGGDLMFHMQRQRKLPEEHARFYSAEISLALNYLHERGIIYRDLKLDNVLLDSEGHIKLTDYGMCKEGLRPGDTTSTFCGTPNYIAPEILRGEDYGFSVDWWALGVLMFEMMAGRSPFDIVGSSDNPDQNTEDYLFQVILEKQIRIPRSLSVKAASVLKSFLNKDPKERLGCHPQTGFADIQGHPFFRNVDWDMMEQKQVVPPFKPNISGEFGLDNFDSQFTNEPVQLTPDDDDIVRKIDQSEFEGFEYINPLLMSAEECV
# Summary of the method: as §1
# SGK = molecular target: T5, SGK (Homo sapiens, UniProt O00141); settings: read-out: percentage of control activity (POC), SGK
# T5 construct: purchased Eurofins Pharma Discovery Services (KinaseProfiler; Cerep BioPrint panel)
# T5 sequence (O00141 1-431): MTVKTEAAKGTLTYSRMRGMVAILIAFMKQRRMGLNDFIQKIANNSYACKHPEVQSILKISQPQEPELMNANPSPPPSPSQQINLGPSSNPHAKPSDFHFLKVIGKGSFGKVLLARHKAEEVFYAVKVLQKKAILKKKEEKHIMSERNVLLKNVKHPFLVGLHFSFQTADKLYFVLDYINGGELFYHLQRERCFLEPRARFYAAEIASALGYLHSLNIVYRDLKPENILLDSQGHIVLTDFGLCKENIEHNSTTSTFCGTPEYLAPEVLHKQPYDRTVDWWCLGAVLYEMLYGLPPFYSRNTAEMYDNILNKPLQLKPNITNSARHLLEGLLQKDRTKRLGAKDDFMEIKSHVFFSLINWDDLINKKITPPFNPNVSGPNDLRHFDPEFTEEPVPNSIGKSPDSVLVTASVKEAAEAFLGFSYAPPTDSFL
# Summary of the method: as §1
# SAPK2b = molecular target: T6, SAPK2b (Homo sapiens, UniProt Q15759); settings: for inhibition at 10 µM: read-out: inhibition of p38 β(SAPK2β); for remaining activity at 10 µM: read-out: percentage of control activity (POC), SAPK2b
# T6 construct: purchased Eurofins Pharma Discovery Services (KinaseProfiler; Cerep BioPrint panel)
# T6 sequence (Q15759 whole entry): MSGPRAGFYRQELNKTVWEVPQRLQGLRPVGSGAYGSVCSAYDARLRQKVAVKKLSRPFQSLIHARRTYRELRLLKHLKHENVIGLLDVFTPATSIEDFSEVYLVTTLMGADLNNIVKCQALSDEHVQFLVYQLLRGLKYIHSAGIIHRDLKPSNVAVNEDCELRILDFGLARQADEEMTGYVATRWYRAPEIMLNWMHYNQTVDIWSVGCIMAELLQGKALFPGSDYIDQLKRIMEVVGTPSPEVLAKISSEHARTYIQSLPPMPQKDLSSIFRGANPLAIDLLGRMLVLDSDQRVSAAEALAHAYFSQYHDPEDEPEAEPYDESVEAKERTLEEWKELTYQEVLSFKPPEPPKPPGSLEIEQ
# Summary of the method: as §1
# PI3K (p110b/p85a) = molecular target: T7, PI3K (p110b/p85a) (Homo sapiens, UniProt P42338); settings: read-out: percentage of control activity (POC), PI3K (p110b/p85a)
# T7 construct: purchased Eurofins Pharma Discovery Services (KinaseProfiler; Cerep BioPrint panel)
# T7 sequence (P42338 whole entry): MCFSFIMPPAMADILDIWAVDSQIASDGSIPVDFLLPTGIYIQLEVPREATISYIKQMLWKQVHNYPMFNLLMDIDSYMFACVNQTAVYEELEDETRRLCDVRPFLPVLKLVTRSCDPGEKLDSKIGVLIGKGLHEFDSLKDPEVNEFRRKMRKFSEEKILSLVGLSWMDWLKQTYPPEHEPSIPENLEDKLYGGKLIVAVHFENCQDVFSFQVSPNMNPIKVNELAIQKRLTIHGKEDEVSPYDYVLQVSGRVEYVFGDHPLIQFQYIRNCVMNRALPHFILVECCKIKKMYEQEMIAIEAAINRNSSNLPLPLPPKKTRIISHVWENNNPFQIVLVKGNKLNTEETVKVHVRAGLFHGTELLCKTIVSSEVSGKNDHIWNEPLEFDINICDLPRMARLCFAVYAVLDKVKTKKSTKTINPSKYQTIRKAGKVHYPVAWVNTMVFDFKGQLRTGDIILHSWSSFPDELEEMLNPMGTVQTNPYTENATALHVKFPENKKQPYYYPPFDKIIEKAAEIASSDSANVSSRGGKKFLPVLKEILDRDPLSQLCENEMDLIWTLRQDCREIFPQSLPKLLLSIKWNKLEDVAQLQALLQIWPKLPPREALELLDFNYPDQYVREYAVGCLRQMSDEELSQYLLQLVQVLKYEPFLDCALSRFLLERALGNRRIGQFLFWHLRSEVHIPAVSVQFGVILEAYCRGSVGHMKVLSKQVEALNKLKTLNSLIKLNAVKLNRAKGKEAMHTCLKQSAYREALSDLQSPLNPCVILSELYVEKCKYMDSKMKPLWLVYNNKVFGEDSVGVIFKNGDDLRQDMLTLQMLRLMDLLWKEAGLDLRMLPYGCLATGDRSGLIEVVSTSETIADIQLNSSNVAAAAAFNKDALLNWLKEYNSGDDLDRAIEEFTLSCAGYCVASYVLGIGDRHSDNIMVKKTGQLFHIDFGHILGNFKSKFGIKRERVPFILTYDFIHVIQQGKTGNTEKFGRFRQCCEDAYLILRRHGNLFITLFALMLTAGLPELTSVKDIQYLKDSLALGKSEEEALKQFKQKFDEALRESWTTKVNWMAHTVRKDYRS
# T7 sequence (P27986 whole entry partner): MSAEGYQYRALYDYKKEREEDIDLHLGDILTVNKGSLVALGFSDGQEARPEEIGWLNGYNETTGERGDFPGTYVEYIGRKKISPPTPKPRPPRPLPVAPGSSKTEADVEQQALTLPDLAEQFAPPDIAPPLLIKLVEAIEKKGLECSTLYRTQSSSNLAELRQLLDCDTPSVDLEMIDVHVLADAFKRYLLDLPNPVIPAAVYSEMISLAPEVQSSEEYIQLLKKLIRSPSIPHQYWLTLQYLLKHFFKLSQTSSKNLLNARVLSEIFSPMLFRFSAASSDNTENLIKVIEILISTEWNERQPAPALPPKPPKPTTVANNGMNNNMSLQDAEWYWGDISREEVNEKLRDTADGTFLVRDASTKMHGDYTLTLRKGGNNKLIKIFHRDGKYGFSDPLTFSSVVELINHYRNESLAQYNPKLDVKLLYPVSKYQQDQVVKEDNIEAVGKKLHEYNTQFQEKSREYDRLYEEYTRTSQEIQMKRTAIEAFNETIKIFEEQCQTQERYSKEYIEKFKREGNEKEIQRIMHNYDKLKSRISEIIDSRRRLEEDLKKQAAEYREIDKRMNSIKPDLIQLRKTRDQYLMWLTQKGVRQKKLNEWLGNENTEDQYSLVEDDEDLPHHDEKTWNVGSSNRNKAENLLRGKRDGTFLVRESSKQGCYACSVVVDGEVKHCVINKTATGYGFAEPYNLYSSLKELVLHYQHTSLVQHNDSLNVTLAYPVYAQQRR
# Summary of the method: as §1
# RIPK2 = molecular target: T8, RIPK2 (Homo sapiens, UniProt O43353); settings: read-out: percentage of control activity (POC), RIPK2
# T8 construct: purchased Eurofins Pharma Discovery Services (KinaseProfiler; Cerep BioPrint panel)
# T8 sequence (O43353 whole entry): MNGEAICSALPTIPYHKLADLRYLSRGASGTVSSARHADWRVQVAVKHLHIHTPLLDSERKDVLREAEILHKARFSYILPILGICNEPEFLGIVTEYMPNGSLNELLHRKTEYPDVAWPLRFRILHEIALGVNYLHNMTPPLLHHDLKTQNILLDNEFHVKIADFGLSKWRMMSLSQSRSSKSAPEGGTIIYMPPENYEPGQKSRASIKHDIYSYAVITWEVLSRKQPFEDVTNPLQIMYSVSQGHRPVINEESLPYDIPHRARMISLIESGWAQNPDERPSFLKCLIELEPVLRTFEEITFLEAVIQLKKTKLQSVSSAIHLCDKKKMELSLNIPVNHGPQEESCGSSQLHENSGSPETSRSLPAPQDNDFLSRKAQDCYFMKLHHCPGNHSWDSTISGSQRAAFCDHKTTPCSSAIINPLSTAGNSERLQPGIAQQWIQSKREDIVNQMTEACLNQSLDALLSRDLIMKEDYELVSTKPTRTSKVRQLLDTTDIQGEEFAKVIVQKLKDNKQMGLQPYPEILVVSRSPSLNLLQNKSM
# Summary of the method: as §1
# DRAK1 = molecular target: T9, DRAK1 (Homo sapiens, UniProt Q9UEE5); settings: read-out: percentage of control activity (POC), DRAK1
# T9 construct: purchased Eurofins Pharma Discovery Services (KinaseProfiler; Cerep BioPrint panel)
# T9 sequence (Q9UEE5 1-414): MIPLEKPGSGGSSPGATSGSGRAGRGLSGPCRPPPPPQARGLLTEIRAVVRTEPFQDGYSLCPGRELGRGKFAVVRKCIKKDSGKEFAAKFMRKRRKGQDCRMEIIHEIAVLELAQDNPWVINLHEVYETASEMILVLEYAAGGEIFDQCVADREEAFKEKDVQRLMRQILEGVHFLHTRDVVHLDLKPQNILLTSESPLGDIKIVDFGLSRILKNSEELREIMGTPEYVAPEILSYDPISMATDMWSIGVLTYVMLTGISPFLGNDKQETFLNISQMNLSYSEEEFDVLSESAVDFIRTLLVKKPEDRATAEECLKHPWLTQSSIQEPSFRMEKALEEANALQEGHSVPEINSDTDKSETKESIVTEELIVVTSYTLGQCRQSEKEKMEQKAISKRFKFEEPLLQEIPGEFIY
# Summary of the method: as §1
# ZAP-70 = molecular target: T10, ZAP-70 (Homo sapiens, UniProt P43403); settings: read-out: percentage of control activity (POC), ZAP-70
# T10 construct: purchased Eurofins Pharma Discovery Services (KinaseProfiler; Cerep BioPrint panel)
# T10 sequence (P43403 1-619): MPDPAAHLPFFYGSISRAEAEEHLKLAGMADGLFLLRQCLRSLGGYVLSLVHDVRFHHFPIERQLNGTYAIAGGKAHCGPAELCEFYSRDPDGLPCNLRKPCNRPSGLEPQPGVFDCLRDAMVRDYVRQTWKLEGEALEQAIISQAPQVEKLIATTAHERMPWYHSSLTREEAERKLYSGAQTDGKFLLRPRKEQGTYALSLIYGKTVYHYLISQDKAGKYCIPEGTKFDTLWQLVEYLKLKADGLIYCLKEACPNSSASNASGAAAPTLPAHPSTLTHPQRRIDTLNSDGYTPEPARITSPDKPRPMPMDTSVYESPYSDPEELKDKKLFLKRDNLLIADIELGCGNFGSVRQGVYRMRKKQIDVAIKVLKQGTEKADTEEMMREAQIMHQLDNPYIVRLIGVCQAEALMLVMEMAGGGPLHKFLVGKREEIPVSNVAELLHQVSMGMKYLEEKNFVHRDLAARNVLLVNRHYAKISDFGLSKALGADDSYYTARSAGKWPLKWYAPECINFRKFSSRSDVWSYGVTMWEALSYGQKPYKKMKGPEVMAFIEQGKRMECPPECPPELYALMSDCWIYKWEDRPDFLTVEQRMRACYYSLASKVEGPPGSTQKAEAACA
# Summary of the method: as §1
Structure (SMILES),remaining activity at 10 µM (CDK6/cyclinD3) [%],remaining activity at 10 µM (JNK3) [%],remaining activity at 10 µM (Abl) [%],remaining activity at 10 µM (PKCι) [%],remaining activity at 10 µM (SGK) [%],inhibition at 10 µM (SAPK2b) [%],remaining activity at 10 µM (SAPK2b) [%],remaining activity at 10 µM (PI3K (p110b/p85a)) [%],remaining activity at 10 µM (RIPK2) [%],remaining activity at 10 µM (DRAK1) [%],remaining activity at 10 µM (ZAP-70) [%]
CC(C)(C)N1CCC(c2cc(-c3ccc(F)cc3Cl)c3cc[n+]([O-])c(-c4c(Cl)cccc4Cl)c3n2)CC1 [compound 2],102,97,104,103,105,~100,-5,92,61,99,105
Cc1ccc(C(=O)NCC2CC2)cc1-c1ccc2c(c1)NC(=O)C21CCCC1 [compound 3],97,65,96,100,99,~100,-6,86,94,98,97
Cn1cc(-c2cccc(-c3nc(C(=O)NC4C5CC6CC4CC(O)(C6)C5)c(N)nc3N)c2)cn1 (centres unmarked) [compound 4],93,72,66,87,96,,99,71,61,89,104
CS(=O)(=O)N1CCN(c2ccc(Nc3ncc(C(N)=O)c(NC4CC4)n3)cc2)CC1 [compound 5],23,-4,2,83,64,,82,93,81,1,53
"COc1c(NC(=O)c2ccc(C)c(-c3nnc4c(NCC(C)(C)C)nccn34)c2)cc(C(C)(C)C)cc1NS(C)(=O)=O [compound 7, reference compound]",100,75,50,103,114,~100,-4,87,100,144,104
